Results as given in US4337339A, “Process for preparation of folic acid derivatives” (Baker Instruments Corp., priority 1979, dated 1982).

Key:
whole milk folate binder = whole milk folate binder (Bos taurus, UniProt P02702); test: competitive protein binding (CPB) radioassay for folates using pteroyltyrosine [125I] as radiolabel; conditions: for dose response curves generated using pteroyltyrosine [125I] as label, folic acid versus N5-methyl THF: at high pH compared with lower pH; for behaviour in the folate competitive protein binding assay of radiolabel made from directly coupled p-aminobenzoyltyrosine product, compared with label from the hydrolyzed ester: pteroyltyrosine from 6-formylpterin + H-PABA-L-Tyr-OH (Example 1f(2)), radioiodinated, gel chromatography
Protocol: The use of the Centria® analytical system, Union Carbide Corporation, in this example, is meant to be illustrative and other methods, both automated and manual, obvious to those skilled in the clinical diagnostic art are also within the scope of this invention.
Briefly, the Centria® system is a tri-modular instrument in which reagents are pipetted on to a multiwell transfer disk and mixed centrifugally with standards or patients' samples. After a suitable incubation period, the components are separated by a centrifugal elution of the bound and free fractions and the bound fractions counted three at a time.
Folic acid and N^5 -methyltetrahydrofolic acid standards in the range 0-20 nanograms/milliliter were prepared in 0.05 M sodium borate, pH 9.3 containing 0.1% human serum albumin. The whole milk binder was prepared according to the method of Rothenberg et al., (3) and dissolved in sodium borate, pH 9.3 containing 0.1% human serum albumin.
(50 microliters, 20,000 cpm) plus 85 microliters of water with the limited number of binding sites contained in a 200 microliter solution of whole milk folate binder. The binding reactions may be shown as follows:
After a 10 minute incubation, the reaction mixture was centrifugally transferred onto DEAE Sephadex A-25 columns (0.75×4 in.) where separation of complexed folate from free folate was effected with 1.4 ml of elution buffer
(3) S. Rothenberg, M. DaCosta, and Z. Rosenberg, New Eng.
A gamma counter which counts three of the 36 positions at a time for one minute, so constructed that only the eluate bottom portion of the test tubes fits into the counter, was then used to count all samples. Sequential counting of the tubes thus required about 12 minutes. A small computer with printout capability then printed out the data after completion of the cycle.

[1] = storage stability of the radioiodinated product, judged by assay performance; assay type: physicochemical; conditions: ten-week period, stored in 50% aqueous propylene glycol solution
Source text: Radioiodination of biological compounds frequently leads to marked chemical instability and subsequent degradation of the radiolabel. This problem is often accentuated in the radiolabel when the materials to be radioiodinated are known to be sensitive to oxygen, light or extremes in pH, as is the case with folic acid and some derivatives.
The reaction mixture was applied to a 1×20 cm Sephadex G25, fine, (Pharmacia Fine Chemicals, Uppsala, Sweden) column hydrated with distilled water and equilibrated with 0.1 M potassium phosphate, pH 7.5. The column was eluted with 0.1 M potassium phosphate buffer and 3 ml fractions collected. The product "peak" fractions 32-34 were collected, diluted 1:1 with propylene glycol and stored below 0° C.

carboxypeptidase A = test: enzymatic hydrolysis of pteroyltyrosine followed by UV spectrophotometry; assay type: biochemical; conditions: two hours, ambient temperature, Tris-HCl with zinc chloride pH 7.3
Protocol: Two millilters of a solution of pteroyltrosine ([…]) in 0.025 M Tris-HCl containing 2 mM zinc chloride, pH 7.3 were diluted to 10 ml with distilled water. A portion of this solution (2 ml) was placed in a 1 cm cuvette and in another was placed 2 ml of distilled water. To each of the cuvettes was added 50 μl of a solution of 100 μl carboxypeptidase A suspension (Aldrich chemical, lot (060637) diluted with 0.9 ml of 10% lithium chloride.
The time course of the reaction was followed spectrophotometrically (uv) over a period of two hours at ambient temperature. An increase and shift in max from 280 to 277 nm and a marked decrease in absorption at 220 nm was observed. Two isobestic points at 242 and 282 nm were visible.

whole milk folate binder, sequence (P02702 20-234): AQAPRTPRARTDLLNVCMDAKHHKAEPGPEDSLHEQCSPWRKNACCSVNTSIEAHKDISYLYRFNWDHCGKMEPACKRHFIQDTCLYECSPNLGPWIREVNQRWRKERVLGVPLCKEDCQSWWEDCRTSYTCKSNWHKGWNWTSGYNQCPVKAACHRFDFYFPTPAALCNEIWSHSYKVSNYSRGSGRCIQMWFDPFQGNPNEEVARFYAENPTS

CN1c2c(O)nc(N)nc2NCC1CNc1ccc(C(=O)N[C@@H](CCC(=O)O)C(=O)O)cc1 (stereo partly shown) [N^5 -methyl THF, N-5-methyltetrahydrofolic acid, reference compound]
dose response curves generated using pteroyltyrosine [125I] as label, folic acid versus N5-methyl THF (whole milk folate binder): more nearly coincident than at lower pH

Nc1nc2ncc(CNc3ccc(C(=O)N[C@@H](CCC(=O)O)C(=O)O)cc3)nc2c(=O)[nH]1 [folic acid]
dose response curves generated using pteroyltyrosine [125I] as label, folic acid versus N5-methyl THF (whole milk folate binder): more nearly coincident than at lower pH

Nc1nc(O)c2nc(CNc3ccc(C(=O)N[C@@H](Cc4ccc(O)c([125I])c4)C(=O)O)cc3)cnc2n1 [pteroyltyrosine [^125 I]]
stability of radioiodinated product (assay performance on storage) [1]: no deterioration in assay performance | performance as radiolabel in CPB radioassay for folic acid (whole milk folate binder; folic acid concentration range 0-20 ng/ml): effective radiolabel

Nc1nc2ncc(CNc3ccc(C(=O)N[C@@H](Cc4ccc(O)cc4)C(=O)O)cc3)nc2c(=O)[nH]1 [pteroyltyrosine, Pteroyl-L-Tyrosine]
UV spectral change on treatment with carboxypeptidase A (hydrolysis) (carboxypeptidase A): final spectrum was very similar to that of pteroic acid | behaviour in the folate competitive protein binding assay of radiolabel made from directly coupled p-aminobenzoyltyrosine product, compared with label from the hydrolyzed ester (whole milk folate binder): functioned identically | behaviour in the folate competitive protein binding assay of radiolabel made from directly coupled p-aminobenzoyltyrosine product, compared with label from the hydrolyzed ester (whole milk folate binder; listed as Pt-L-Tyr-OH): identically
